In article PMC8433833, “Heteroleptic Oxidovanadium(V) Complexes with Activity against Infective and Non-Infective Stages of Trypanosoma cruzi” (Molecules, 2021):
Like-named read-outs stand apart in the source and are kept apart here.

How the values were obtained:
calf thymus DNA (ctDNA) = assay: Competitive binding to {DNA-EB} adduct by fluorescence; details: ctDNA 1.5 μM, EB 0.75 μM, 10 mM Tris-HCl pH 7.4, DMSO ≤5% v/v
Protocol: Experiments for competitive binding to calf thymus DNA (ctDNA, SIGMA, Type I, No. D-1501, St. […] Millipore water was used for the preparation of solutions of the complexes for the studies and for buffer solution. Fluorescence measurements were performed as titration using a fixed concentration of ctDNA and EB while gradually increasing the concentration of the [V^VO(IN-2H)(L2-H)] complex, L2 and IN free ligands. ctDNA stock solutions were prepared by hydrating ctDNA in Tris-HCl buffer (1 mg mL^−1, ~2 mM nuc^−1). This solution was allowed to stand at 4 °C. The concentration of the stock solution was determined by UV spectrophotometry using the molar absorption coefficient ε (260 nm) = 6600 M^−1cm^−1nuc^−1 [76]. An EB 0.5 mM solution was prepared in Tris-HCl buffer. Due to the low solubility of the complexes in aqueous media, DMSO was used to prepare concentrated stock solutions, followed by appropriate dilution. […] Fluorescence spectra were recorded from 540 nm to 680 nm at an excitation wavelength of 510 nm on a Shimadzu RF 5301 spectrofluorimeter (Kyoto, Japan) and in a 10.0 × 10.0 mm^2 quartz cuvette. Samples with only compounds and ctDNA (without EB) were used as blanks and subtracted from the sample spectra. […] KSV were determined from the plot of F0/F versus [Q].

[1] = test system: T. cruzi epimastigotes (CL Brener strain); assay: In vitro activity against epimastigotes of T. cruzi (alamar Blue); format: cell-based, Trypanosoma cruzi; details: for IC50: Trypanosoma cruzi, 24 h, read-out: IC50 Epimastigotes T. cruzi ± SD
[2] = test system: T. cruzi trypomastigotes (CL Brener strain); assay: In vitro activity against cell-derived trypomastigotes of T. cruzi (alamar Blue); format: cell-based, Trypanosoma cruzi; details: for IC50: Trypanosoma cruzi, 24 h, read-out: IC50 Trypomastigotes T. cruzi ± SD
VERO cells [3] = assay: Cytotoxicity on VERO cells (MTT assay); format: cell-based, African green monkeys; details: Primates, 24 h, read-out: IC50 VERO ± SD
Protocol: VERO cells. VERO cells (ATCC CCL81, Manassas, VA, USA) were used as mammalian cell model for testing unspecific cytotoxicity. This cell lineage was isolated from kidney epithelial cells from African green monkeys and is widely used for phenotypic screening of drugs as it is regarded as a normal cell derived from epithelial tissue.
Cells were cultured in RPMI medium (Gibco, Grand Island, NY, USA) supplemented with 10% heat inactivated fetal bovine serum, penicillin (100 units/mL) and streptomycin (100 µg/mL) at 37 °C in a humidified 5% CO2 incubator. For maintenance, confluent cells were washed with PBS, incubated for 3 min with trypsin-EDTA (Gibco), diluted and re-plated.
The compounds were initially dissolved in DMSO (stock concentration). […]
For the cytotoxicity assay, 10,000 cells per well were seeded in a 96-well plate in RPMI medium and were incubated at 37 °C in a 5% CO2 atmosphere. […] Cell viability was assessed using MTT (3-(4, 5-dimethylthiazolyl-2)-2, 5-diphenyltetrazolium bromide) assay, where MTT is reduced by metabolically active cells to generate reducing equivalents such as NADH and NADPH, resulting in the formation of an intracellular purple formazan which can be solubilized by the addition of DMSO. […] Plates were kept for 15 min with agitation and absorbance was measured at 570 nm in a Thermo Scientific Varioskan® Flash Multimode instrument (Waltham, MA, USA). […]

VERO cells [4] = test system: VERO cells; set-up: method as in doi:10.1039/C9NJ02589H; details: ref [42], read-out: IC50 VERO ± SD; cited from earlier work
[5] = test system: Caenorhabditis elegans Bristol strain N2; assay: In vivo toxicity on C. elegans (motility, viability, development); details: C. elegans L4, 2 µM, positive control
Protocol: The wild-type Caenorhabditis elegans (C. elegans) Bristol strain N2 and Escherichia coli (E. coli) OP50 strain were obtained from the Caenorhabditis Genomics Center (Minneapolis, MN, USA). Worms were maintained under standard conditions at 20 °C on Nematode Growth Media (NGM) agar plates seeded with E. coli OP50 as a source of food as previously described. The method used to assess toxicity is based on worm motility according to previously described. Briefly, the locomotor activity recording system, WMicrotracker^TM ONE (PhylumTech, Santa Fe, Argentina) detects infrared microbeam interruptions. Synchronized L4 C. elegans worms were removed from culture plates and washed three times with M9 buffer (3 g KH2PO4; 6 g Na2HPO4; 5 g NaCl; 1 mL 1 M MgSO4 per liter) by centrifugation at 1000 g. Worms in M9 1% DMSO were plated in 96-well flat microtiter plates (Deltalab, Barcelona, Spain). Approximately 70 worms per well were seeded in 60 µL M9 buffer containing 1% DMSO and their basal movement was measured for 30 min to normalize the movement activity for each well at the beginning of the assay. Then, compound [V^VO(IN-2H)(L2-H)] dissolved in M9 buffer 1% DMSO was added to a final concentration range of 6.5–100 µM in a final volume of 100 µL per well. […] The motility using WMicrotracker^TM ONE was measured for 18 h. […]

| IC50 ([1]; CL Brener strain) [µM] | IC50 ([2]; CL Brener strain, cell-derived) [µM] | Molecule | IC50 (VERO cells [4]) [µM] | also measured |
| --- | --- | --- | --- | --- |
| > 20 | > 20 | O=C(N/N=C/c1c(O)ccc2ccccc12)c1ccncc1 [IN] | – | log (KSV), Stern–Volmer constant for competitive binding to {DNA-EB} adduct (calf thymus DNA (ctDNA)): 4.29; activity on epimastigotes (in words) [1]: negligible activity; activity on trypomastigotes (in words) [2]: negligible activity; IC50 (VERO cells [3]): 22.6 ± 3.7 µM |
| – | – | Oc1cccc2cccnc12 [L0] | 10.1 ± 3.9 | IC50 [1]: 9.42 ± 2.23 µM; IC50 [2]: 0.47 ± 0.07 µM |
| 7.17 ± 1.07 | 2.25 ± 0.95 | Oc1c(Cl)cc(Cl)c2cccnc12 [L1, 5,7-dichloro-8-hydroxyquinolne] | 66.5 ± 13.1 | – |
| 2.76 ± 0.52 | 0.4 ± 0.08 | Oc1c(I)cc(Cl)c2cccnc12 [L2, 5-chloro-7-iodo-8-hydroxyquinoline] | 64.7 ± 9.1 | log (KSV), Stern–Volmer constant for competitive binding to {DNA-EB} adduct (calf thymus DNA (ctDNA)): 4.68 |
| 2.17 ± 0.35 | 1.1 ± 0.88 | Oc1c(I)cc(I)c2cccnc12 [L3] | 75.5 ± 16.3 | – |
| 2.58 ± 0.56 | 1.01 ± 0.73 | O=[N+]([O-])c1ccc(O)c2ncccc12 [L4] | 12.5 ± 4.5 | – |
| 3.68 ± 0.71 | 20.1 ± 2.86 | CC1CS(=O)(=O)CCN1/N=C/c1ccc([N+](=O)[O-])o1 (centres unmarked) [Nifurtimox] | 998 ± 90.6 | – |
| – | – | ivermectin | – | effect on worm motility [5]: reduced motility to zero |
